Here are results for 58 molecules from patent US12338203B2 (TAISHO PHARMACEUTICAL CO., LTD., priority 2019, dated 2025).

The target of the test is T1, human LPAR1 (Homo sapiens, UniProt Q92633).
T1 construct: expressed in transfected cells
T1 sequence (Q92633 whole entry): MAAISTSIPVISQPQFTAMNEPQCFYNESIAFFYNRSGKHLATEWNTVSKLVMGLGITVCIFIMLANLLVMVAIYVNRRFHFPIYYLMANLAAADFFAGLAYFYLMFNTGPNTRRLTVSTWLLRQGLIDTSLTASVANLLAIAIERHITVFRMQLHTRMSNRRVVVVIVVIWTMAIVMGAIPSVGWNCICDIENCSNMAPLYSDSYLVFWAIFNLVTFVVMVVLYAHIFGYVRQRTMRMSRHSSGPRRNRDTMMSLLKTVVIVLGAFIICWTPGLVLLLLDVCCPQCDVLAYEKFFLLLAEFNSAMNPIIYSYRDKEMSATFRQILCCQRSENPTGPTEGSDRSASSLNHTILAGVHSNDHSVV
The experiment in a line: Test Example 1: antagonism against response of LPA-induced increase in intracellular Ca2+ concentration in RH7777 cells stably expressing human LPAR1. Type of test: cell-based. The settings on record: RH7777 cells stably expressing human LPAR1; Fluo-4 fluorescence, FDSS6000; read-out: IC50 value (concentration producing 50% antagonism against response of LPA-induced increase in intracellular Ca2+ concentration) (converted). The method in brief:
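RH7777 cells stably transfected with human LPAR1 were preincubated with test compound 30 min at 37 °C in HBSS/20 mM HEPES/probenecid/0.05% BSA buffer, pH 7.4, then LPA-stimulated.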
As to `CCOc1cc([C@@H](C)N(CCO[C@@H](C)c2ccccc2)C(=O)N[C@]2(C(=O)O)C[C@@H](OCC)C2)c(C)c(OCC)c1C(C)=O` [Example 5-118, Trans-1-[([(1R)-1-(4-Acetyl-3,5-Diethoxy-2-Methylphenyl)Ethyl]{2-[(1S)-1-Phenylethoxy]Ethyl}Carbamoyl)Amino]-3-Ethoxycyclobutane-1-Carboxylic Acid], the IC50 is 1.86 nM.
The result for `CCOc1cc([C@@H](C)N(CCO[C@@H](C)c2ccccc2)C(=O)NC2(C(=O)O)CC(OCC)C2)c(C)c(OCC)c1C(C)=O` (stereo partly shown) [Example 5-119] reads 2.91 nM; that for `COc1cc([C@@H](C)N(CCOCc2ccccc2)C(=O)NC2(C(=O)O)CC(OC)C2)cc(OC)c1C(C)=O` (stereo partly shown) [Example 5-121], 12.1 nM.
The result for `COc1cc([C@@H](C)N(CCO[C@@H](C)c2ccccc2)C(=O)NC2(C(=O)O)CC(OC)C2)cc(OC)c1C(C)=O` (stereo partly shown) [Example 5-122] reads 30.3 nM; that for `COc1cc([C@@H](C)N(CCOCc2ccccc2)C(=O)NC2(C(=O)O)CC(OC)C2)c(Cl)c(OC)c1C(C)=O` (stereo partly shown) [Example 5-123], 4.33 nM; that for `COc1cc([C@@H](C)N(CCO[C@@H](C)c2ccccc2)C(=O)NC2(C(=O)O)CC(OC)C2)c(Cl)c(OC)c1C(C)=O` (stereo partly shown) [Example 5-124], 10.8 nM.
The result for `CCOC1CC(NC(=O)N(CCOCc2ccccc2)[C@H](C)c2cc(OC)c(C(C)=O)c(OC)c2)(C(=O)O)C1` (stereo partly shown) [Example 5-125] reads 10.9 nM.
For the molecule `CCO[C@H]1C[C@@](NC(=O)N(CCO[C@@H](C)c2ccccc2)C(C)c2cc(OC)c(C(C)=O)c(OC)c2)(C(=O)O)C1` (stereo partly shown) [Example 5-126], the IC50 is 26.1 nM.
The result for `CCO[C@H]1C[C@@](NC(=O)N(CCOCc2ccccc2)C(C)c2cc(OC)c(C(C)=O)c(OC)c2Cl)(C(=O)O)C1` (stereo partly shown) [Example 5-127] reads 3.94 nM; that for `CCO[C@H]1C[C@@](NC(=O)N(CCO[C@@H](C)c2ccccc2)C(C)c2cc(OC)c(C(C)=O)c(OC)c2Cl)(C(=O)O)C1` (stereo partly shown) [Example 5-128], 10.3 nM.
Take `COc1cc(C(C)N(CCOCc2ccccc2)C(=O)NC2(C(=O)O)CC2)c(Cl)c(OC)c1C1CC1` (stereo not shown) [Example 5-129]: the IC50 is 38.4 nM.
The result for `COc1cc(C(C)N(CCOCc2ccccc2)C(=O)NC2(C(=O)O)CCC2)cc(OC)c1C(C)=O` (stereo not shown) [Example 5-130] reads 7.9 nM.
The result for `COc1cc(C(C)N(CCOCc2ccccc2)C(=O)NC2(C(=O)O)CCC2)cc(OC)c1C1CC1` (stereo not shown) [Example 5-131] reads 10.8 nM; that for `COc1cc(C(C)N(CCOCc2ccccc2)C(=O)NC2(C(=O)O)CCC2)c(Cl)c(OC)c1C(C)=O` (stereo not shown) [Example 5-132], 4.97 nM; that for `COc1cc(C(C)N(CCOCc2ccccc2)C(=O)NC2(C(=O)O)CCC2)c(C)c(OC)c1C(C)=O` (stereo not shown) [Example 5-134], 4.55 nM.
The result for `COc1cc(C(C)N(CCOCc2ccccc2)C(=O)NC2(C(=O)O)CCC2)c(C)c(OC)c1C1CC1` (stereo not shown) [Example 5-135] reads 1.88 nM; that for `COc1cc(C(C)N(CCOCc2ccccc2)C(=O)NC2(C(=O)O)CCC2)c(C)c(OC)c1C` (stereo not shown) [Example 5-136], 30.7 nM; that for `COc1cc(C(C)N(CCO[C@@H](C)c2ccccc2)C(=O)NC2(C(=O)O)CCC2)cc(OC)c1C1CC1` (stereo partly shown) [Example 5-137], 8.18 nM.
With `COc1cc(C(C)N(CCOC(C)c2ccccc2)C(=O)NC2(C(=O)O)CCC2)c(Cl)c(OC)c1C1CC1` (stereo not shown) [Example 5-138], the IC50 was 3.21 nM.
The result for `COc1cc(C(C)N(CCOC(C)c2ccccc2)C(=O)NC2(C(=O)O)CCC2)c(C)c(OC)c1C1CC1` (stereo not shown) [Example 5-139] reads 2.95 nM; that for `COc1cc(C(C)N(CCO[C@@H](C)c2ccccc2)C(=O)NC2(C(=O)O)CCC2)c(C)c(OC)c1C` (stereo partly shown) [Example 5-140], 10.8 nM.
The result for `COc1cc(C(C)N(CCOCc2ccccc2)C(=O)NC2(C(=O)O)CC(F)(F)C2)cc(OC)c1C(C)=O` (stereo not shown) [Example 5-141] reads 3.49 nM.
The result for `COc1cc(C(C)N(CCOCc2ccccc2)C(=O)NC2(C(=O)O)CC(F)(F)C2)cc(OC)c1C1CC1` (stereo not shown) [Example 5-142] reads 1.74 nM.
Consider `COc1cc(C(C)N(CCOCc2ccccc2)C(=O)NC2(C(=O)O)CC(F)(F)C2)c(Cl)c(OC)c1C(C)=O` (stereo not shown) [Example 5-143], for which the IC50 was 3.11 nM.
Turning to `COc1cc(C(C)N(CCOCc2ccccc2)C(=O)NC2(C(=O)O)CC(F)(F)C2)c(Cl)c(OC)c1C1CC1` (stereo not shown) [Example 5-144], the IC50 is 1.11 nM.
The result for `COc1cc(C(C)N(CCOCc2ccccc2)C(=O)NC2(C(=O)O)CC(F)(F)C2)c(C)c(OC)c1C(C)=O` (stereo not shown) [Example 5-145] reads 2.43 nM.
For `COc1cc(C(C)N(CCOCc2ccccc2)C(=O)NC2(C(=O)O)CC(F)(F)C2)c(C)c(OC)c1C1CC1` (stereo not shown) [Example 5-146], the IC50 was 1.02 nM.
The result for `COc1cc(C(C)N(CCOCc2ccccc2)C(=O)NC2(C(=O)O)CC(F)(F)C2)c(C)c(OC)c1C` (stereo not shown) [Example 5-147] reads 3.62 nM; that for `COc1cc(C(C)N(CCO[C@@H](C)c2ccccc2)C(=O)NC2(C(=O)O)CC(F)(F)C2)cc(OC)c1C1CC1` (stereo partly shown) [Example 5-148], 3.4 nM.
The result for `COc1cc(C(C)N(CCO[C@@H](C)c2ccccc2)C(=O)NC2(C(=O)O)CC(F)(F)C2)c(Cl)c(OC)c1C1CC1` (stereo partly shown) [Example 5-149] reads 2.58 nM.
As to `COc1cc(C(C)N(CCO[C@@H](C)c2ccccc2)C(=O)NC2(C(=O)O)CC(F)(F)C2)c(C)c(OC)c1C1CC1` (stereo partly shown) [Example 5-150], the IC50 is 3.37 nM.
With `COc1cc(C(C)N(CCO[C@@H](C)c2ccccc2)C(=O)NC2(C(=O)O)CC(F)(F)C2)c(C)c(OC)c1C` (stereo partly shown) [Example 5-151], the IC50 is 4.46 nM.
The result for `COc1cc(C(C)N(CCOCc2ccccc2)C(=O)NC2(C(=O)O)CC(OC)C2)cc(OC)c1C1CC1` (stereo not shown) [Example 5-152] reads 2.36 nM; that for `COc1cc(C(C)N(CCOCc2ccccc2)C(=O)NC2(C(=O)O)CC(OC)C2)c(Cl)c(OC)c1C1CC1` (stereo not shown) [Example 5-153], 0.961 nM; that for `COc1cc(C(C)N(CCOCc2ccccc2)C(=O)NC2(C(=O)O)CC(OC)C2)c(C)c(OC)c1C(C)=O` (stereo not shown) [Example 5-154], 4.3 nM.
The result for `COc1cc(C(C)N(CCOCc2ccccc2)C(=O)NC2(C(=O)O)CC(OC)C2)c(C)c(OC)c1C1CC1` (stereo not shown) [Example 5-155] reads 1.1 nM; that for `COc1cc(C(C)N(CCOC(C)c2ccccc2)C(=O)NC2(C(=O)O)CC(OC)C2)cc(OC)c1C1CC1` (stereo not shown) [Example 5-157], 3.54 nM.
The result for `COc1cc(C(C)N(CCOC(C)c2ccccc2)C(=O)N[C@]2(C(=O)O)C[C@@H](OC)C2)c(C)c(OC)c1C` (stereo partly shown) [Example 5-160] reads 4.55 nM; that for `COc1cc(C(C)N(CCOCc2ccccc2)C(=O)NC2(C(=O)O)CC(OC)C2)c(Cl)c(OC)c1C1CC1` (stereo not shown) [Example 5-161], 1.46 nM; that for `CCOC1CC(NC(=O)N(CCOCc2ccccc2)C(C)c2cc(OC)c(C3CC3)c(OC)c2)(C(=O)O)C1` (stereo not shown) [Example 5-162], 3.66 nM.
Consider `CCOC1CC(NC(=O)N(CCOCc2ccccc2)C(C)c2cc(OC)c(C(C)=O)c(OC)c2C)(C(=O)O)C1` (stereo not shown) [Example 5-164], for which the IC50 is 4.84 nM.
The result for `CCOC1CC(NC(=O)N(CCOCc2ccccc2)C(C)c2cc(OC)c(C3CC3)c(OC)c2C)(C(=O)O)C1` (stereo not shown) [Example 5-165] reads 2.05 nM; that for `CCOC1CC(NC(=O)N(CCOC(C)c2ccccc2)C(C)c2cc(OC)c(C3CC3)c(OC)c2)(C(=O)O)C1` (stereo not shown) [Example 5-167], 5.26 nM.
The result for `CCOC1CC(NC(=O)N(CCOC(C)c2ccccc2)C(C)c2cc(OC)c(C3CC3)c(OC)c2C)(C(=O)O)C1` (stereo not shown) [Example 5-169] reads 7.97 nM; that for `CCOC1CC(NC(=O)N(CCOC(C)c2ccccc2)C(C)c2cc(OC)c(C)c(OC)c2C)(C(=O)O)C1` (stereo not shown) [Example 5-170], 6.25 nM; that for `COc1cc(C(C)N(CCOCc2ccccc2)C(=O)NC2(C(=O)O)CCOCC2)cc(OC)c1C(C)=O` (stereo not shown) [Example 5-172], 54.2 nM.
With `COc1cc(C(C)N(CCOCc2ccccc2)C(=O)NC2(C(=O)O)CCOCC2)cc(OC)c1C1CC1` (stereo not shown) [Example 5-173], the IC50 is 34.7 nM.
For the molecule `COc1cc(C(C)N(CCOCc2ccccc2)C(=O)NC2(C(=O)O)CCOCC2)c(Cl)c(OC)c1C(C)=O` (stereo not shown) [Example 5-174], the IC50 was 30 nM.
With `COc1cc(C(C)N(CCOCc2ccccc2)C(=O)NC2(C(=O)O)CCOCC2)c(Cl)c(OC)c1C1CC1` (stereo not shown) [Example 5-175], the IC50 is 4.93 nM.
The result for `COc1cc(C(C)N(CCOCc2ccccc2)C(=O)NC2(C(=O)O)CCOCC2)c(C)c(OC)c1C1CC1` (stereo not shown) [Example 5-177] reads 2.77 nM.
As to `COc1cc(C(C)N(CCO[C@@H](C)c2ccccc2)C(=O)NC2(C(=O)O)CCOCC2)c(Cl)c(OC)c1C1CC1` (stereo partly shown) [Example 5-180], the IC50 was 6.4 nM.
The result for `COc1cc(C(C)N(CCO[C@@H](C)c2ccccc2)C(=O)NC2(C(=O)O)CCOCC2)c(C)c(OC)c1C1CC1` (stereo partly shown) [Example 5-181] reads 3.51 nM; that for `CCOc1cc(C(C)N(CCOCc2ccccc2)C(=O)NC2(C(=O)O)CC2)c(Cl)c(OCC)c1C(C)=O` (stereo not shown) [Example 5-184], 2.53 nM; that for `CCOc1cc(C(C)N(CCOCc2ccccc2)C(=O)NC2(C(=O)O)CC2)c(Cl)c(OCC)c1C1CC1` (stereo not shown) [Example 5-185], 0.919 nM.
Take `CCOc1cc(C(C)N(CCOCc2ccccc2)C(=O)NC2(C(=O)O)CC2)c(C)c(OCC)c1C(C)=O` (stereo not shown) [Example 5-186]: the IC50 was 2.63 nM.
The result for `CCOc1cc(C(C)N(CCOC(C)c2ccccc2)C(=O)NC2(C(=O)O)CC2)c(Cl)c(OCC)c1C(C)=O` (stereo not shown) [Example 5-187] reads 4.16 nM.
For the molecule `CCOc1cc(C(C)N(CCOCc2ccccc2)C(=O)NC2(C(=O)O)CCC2)c(Cl)c(OCC)c1C(C)=O` (stereo not shown) [Example 5-189], the IC50 is 1.46 nM.
The result for `CCOc1cc(C(C)N(CCOCc2ccccc2)C(=O)NC2(C(=O)O)CCC2)c(Cl)c(OCC)c1C1CC1` (stereo not shown) [Example 5-190] reads 0.817 nM.
